Earlier results as cited in patent US20230330042A1, “FORMULATION FOR ORAL ADMINISTRATION” (NIPPON ZOKI PHARMACEUTICAL CO., LTD., priority 2020, published 2023).
Like-named read-outs stand apart in the source and are kept apart here.

Key:
κ-opioid receptor = κ-opioid receptor (Homo sapiens, UniProt P41145); conditions: read-out: Ki κ
Noradrenaline reuptake = Noradrenaline reuptake (Homo sapiens, UniProt P23975)
[1] = in vivo
δ-opioid receptor = δ-opioid receptor (Homo sapiens, UniProt P41143); conditions: read-out: Ki δ; Mean value (n = 2-3)
δ-opioid receptor, sequence (P41143 whole entry): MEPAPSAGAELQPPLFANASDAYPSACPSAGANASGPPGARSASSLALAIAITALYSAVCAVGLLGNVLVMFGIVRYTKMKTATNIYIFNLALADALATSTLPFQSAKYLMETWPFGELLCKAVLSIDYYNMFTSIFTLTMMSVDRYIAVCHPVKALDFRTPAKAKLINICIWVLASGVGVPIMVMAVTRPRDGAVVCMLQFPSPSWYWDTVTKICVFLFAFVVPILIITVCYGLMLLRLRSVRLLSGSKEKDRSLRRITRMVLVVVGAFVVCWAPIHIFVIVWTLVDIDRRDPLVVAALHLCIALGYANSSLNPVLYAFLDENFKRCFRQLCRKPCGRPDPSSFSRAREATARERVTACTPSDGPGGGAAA

Serotonin reuptake = Serotonin reuptake (Homo sapiens, UniProt P31645); conditions: read-out: Ki Serotonin
Serotonin reuptake, sequence (P31645 whole entry): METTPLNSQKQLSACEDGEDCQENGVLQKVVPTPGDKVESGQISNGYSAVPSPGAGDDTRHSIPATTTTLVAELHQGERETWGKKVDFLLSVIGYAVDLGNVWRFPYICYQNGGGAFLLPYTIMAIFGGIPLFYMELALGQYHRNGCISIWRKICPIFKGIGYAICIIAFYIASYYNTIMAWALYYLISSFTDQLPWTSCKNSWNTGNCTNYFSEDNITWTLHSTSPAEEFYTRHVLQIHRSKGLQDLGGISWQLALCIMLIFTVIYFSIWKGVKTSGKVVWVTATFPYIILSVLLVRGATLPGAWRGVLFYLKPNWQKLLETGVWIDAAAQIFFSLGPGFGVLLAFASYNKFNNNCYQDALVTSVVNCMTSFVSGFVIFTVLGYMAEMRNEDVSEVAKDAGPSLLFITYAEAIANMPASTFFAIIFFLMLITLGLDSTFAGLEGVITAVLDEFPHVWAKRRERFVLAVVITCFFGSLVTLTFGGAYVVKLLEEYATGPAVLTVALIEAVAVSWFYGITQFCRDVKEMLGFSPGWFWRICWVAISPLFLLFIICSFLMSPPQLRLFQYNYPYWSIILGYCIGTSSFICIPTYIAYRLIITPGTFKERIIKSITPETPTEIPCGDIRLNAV

μ-opioid receptor = μ-opioid receptor (Homo sapiens, UniProt P35372); conditions: read-out: Ki μ; Mean value (n = 2-3)
μ-opioid receptor, sequence (P35372 whole entry, species assumed): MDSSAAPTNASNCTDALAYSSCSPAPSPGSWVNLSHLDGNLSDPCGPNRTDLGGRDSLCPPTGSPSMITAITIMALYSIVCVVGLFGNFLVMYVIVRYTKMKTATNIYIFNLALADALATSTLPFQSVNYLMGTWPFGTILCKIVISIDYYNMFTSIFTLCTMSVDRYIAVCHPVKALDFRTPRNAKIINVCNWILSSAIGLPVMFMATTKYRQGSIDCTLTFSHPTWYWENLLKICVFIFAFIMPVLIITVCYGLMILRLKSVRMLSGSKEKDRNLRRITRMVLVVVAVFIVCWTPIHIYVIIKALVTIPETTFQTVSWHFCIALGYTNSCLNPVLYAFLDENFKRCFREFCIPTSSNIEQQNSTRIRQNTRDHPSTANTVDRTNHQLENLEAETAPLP

[2] = Mean value (n = 2-3); NA: no activity at 10 μmol/L; read-out: Ki Noradrenaline
[3] = read-out: Ki Noradrenaline; Mean value (n = 2-3); NA: no activity at 10 μmol/L

κ-opioid receptor, sequence (P41145 whole entry): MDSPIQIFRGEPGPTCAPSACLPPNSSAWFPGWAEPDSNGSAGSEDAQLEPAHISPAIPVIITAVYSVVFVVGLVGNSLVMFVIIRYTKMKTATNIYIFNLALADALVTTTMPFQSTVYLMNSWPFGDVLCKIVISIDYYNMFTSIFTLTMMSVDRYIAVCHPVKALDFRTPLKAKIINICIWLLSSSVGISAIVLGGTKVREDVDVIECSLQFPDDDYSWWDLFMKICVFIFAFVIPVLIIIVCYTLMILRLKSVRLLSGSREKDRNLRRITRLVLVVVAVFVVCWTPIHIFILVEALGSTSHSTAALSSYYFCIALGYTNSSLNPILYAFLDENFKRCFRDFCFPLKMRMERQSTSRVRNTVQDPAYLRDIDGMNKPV
Noradrenaline reuptake, sequence (P23975 whole entry): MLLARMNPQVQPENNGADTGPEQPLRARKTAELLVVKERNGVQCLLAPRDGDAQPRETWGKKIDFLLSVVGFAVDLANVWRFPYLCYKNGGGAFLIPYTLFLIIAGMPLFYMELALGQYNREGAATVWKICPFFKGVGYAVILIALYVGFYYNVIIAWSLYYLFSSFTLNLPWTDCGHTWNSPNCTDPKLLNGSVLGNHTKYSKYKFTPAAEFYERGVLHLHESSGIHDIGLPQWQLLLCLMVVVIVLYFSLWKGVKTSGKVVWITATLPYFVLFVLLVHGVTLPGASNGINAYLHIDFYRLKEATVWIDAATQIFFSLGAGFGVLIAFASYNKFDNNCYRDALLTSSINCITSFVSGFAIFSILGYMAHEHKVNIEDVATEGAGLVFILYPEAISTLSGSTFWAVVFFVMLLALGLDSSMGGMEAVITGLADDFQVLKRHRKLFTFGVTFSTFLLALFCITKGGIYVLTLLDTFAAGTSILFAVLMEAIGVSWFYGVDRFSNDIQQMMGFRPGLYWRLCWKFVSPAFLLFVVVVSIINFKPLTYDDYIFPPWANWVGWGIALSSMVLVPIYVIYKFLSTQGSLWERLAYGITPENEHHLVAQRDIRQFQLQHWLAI

Structure (SMILES)	Ki (κ-opioid receptor; Mean value (n = 2-3)) [µM]	Ki (Noradrenaline reuptake; [2]) [nM]	Ki (κ-opioid receptor) [µM]	Ki (δ-opioid receptor) [µM]	also measured
CN(C)CC1CCCCC1(O)c1cccc(O)c1 (racemic) [(±)-M1, O-desmethyltramadol]	0.242	1520	–	–	half-life ([1]; po): 6 to 7 h
COc1cccc([C@@]2(O)CCCC[C@@H]2CN(C)C)c1 (racemic) [(±)-Tramadol, (1RS,2RS)-2-[(dimethylamino)methyl]-1-(3-methoxyphenyl)cyclohexanol]	–	–	42.7	57.7	Ki (Noradrenaline reuptake; [3]): 785 nM; unchanged tramadol and metabolites excreted through the kidney [1]: about 90%; half-life ([1]; po): 5 to 6 h; time after administration at which the maximum drug concentration is reached ([1]; po): 1.6 to 1.9 h; time at which the maximum concentration in the brain is reached ([1]; po): 10 min
CN(C)CC1CCCCC1(O)c1cccc(O)c1 (single isomer, unassigned; (+)) [(+)-M1]	0.706	14400	–	0.594	–
COc1cccc(C2(O)CCCCC2CN(C)C)c1 (single isomer, unassigned; (+)) [(+)-Tramadol, (+)-tramadol]	–	2510	54	6.24	–
CN(C)CC1CCCCC1(O)c1cccc(O)c1 (single isomer, unassigned; (-)) [(−)-M1]	32.9	857	–	30.5	–
COc1cccc(C2(O)CCCCC2CN(C)C)c1 (single isomer, unassigned; (-)) [(−)-Tramadol, (−)-tramadol]	–	432	53.5	213	–
COc1ccc2c3c1O[C@H]1[C@@H](O)C=C[C@H]4[C@@H](C2)N(C)CC[C@@]341 [Codeine]	–	–	–	–	Ki (Noradrenaline reuptake; [3]): > 10000 nM; Ki (Serotonin reuptake): > 10 µM
CN(C)CCCN1c2ccccc2CCc2ccccc21 [Imipramine]	–	–	–	12.7	Ki (μ-opioid receptor): 3.73 µM
